Measured values: paper PMC4055737, “Forward Genetic Screening Identifies a Small Molecule That Blocks Toxoplasma gondii Growth by Inhibiting Both Host- and Parasite-Encoded Kinases” (PLoS Pathogens, 2014)
pIC50: −log10 of the molar value. Structures can show the parent of a compound that is named as a salt.

Molecular target: T1, TgMAPK1 (Toxoplasma gondii, UniProt S8EUF0)
T1 construct: gene MAPKL1; full-length, endogenously C-terminally 3×HA-tagged TgMAPK1 (TGGT1_312570), immunoprecipitated from RH strain tachyzoite lysates
Experiment: in vitro autokinase assay (γ[…]-ATP) on anti-HA immunoprecipitated kinase, dose response
Format: biochemical

T1 sequence (S8EUF0 whole entry): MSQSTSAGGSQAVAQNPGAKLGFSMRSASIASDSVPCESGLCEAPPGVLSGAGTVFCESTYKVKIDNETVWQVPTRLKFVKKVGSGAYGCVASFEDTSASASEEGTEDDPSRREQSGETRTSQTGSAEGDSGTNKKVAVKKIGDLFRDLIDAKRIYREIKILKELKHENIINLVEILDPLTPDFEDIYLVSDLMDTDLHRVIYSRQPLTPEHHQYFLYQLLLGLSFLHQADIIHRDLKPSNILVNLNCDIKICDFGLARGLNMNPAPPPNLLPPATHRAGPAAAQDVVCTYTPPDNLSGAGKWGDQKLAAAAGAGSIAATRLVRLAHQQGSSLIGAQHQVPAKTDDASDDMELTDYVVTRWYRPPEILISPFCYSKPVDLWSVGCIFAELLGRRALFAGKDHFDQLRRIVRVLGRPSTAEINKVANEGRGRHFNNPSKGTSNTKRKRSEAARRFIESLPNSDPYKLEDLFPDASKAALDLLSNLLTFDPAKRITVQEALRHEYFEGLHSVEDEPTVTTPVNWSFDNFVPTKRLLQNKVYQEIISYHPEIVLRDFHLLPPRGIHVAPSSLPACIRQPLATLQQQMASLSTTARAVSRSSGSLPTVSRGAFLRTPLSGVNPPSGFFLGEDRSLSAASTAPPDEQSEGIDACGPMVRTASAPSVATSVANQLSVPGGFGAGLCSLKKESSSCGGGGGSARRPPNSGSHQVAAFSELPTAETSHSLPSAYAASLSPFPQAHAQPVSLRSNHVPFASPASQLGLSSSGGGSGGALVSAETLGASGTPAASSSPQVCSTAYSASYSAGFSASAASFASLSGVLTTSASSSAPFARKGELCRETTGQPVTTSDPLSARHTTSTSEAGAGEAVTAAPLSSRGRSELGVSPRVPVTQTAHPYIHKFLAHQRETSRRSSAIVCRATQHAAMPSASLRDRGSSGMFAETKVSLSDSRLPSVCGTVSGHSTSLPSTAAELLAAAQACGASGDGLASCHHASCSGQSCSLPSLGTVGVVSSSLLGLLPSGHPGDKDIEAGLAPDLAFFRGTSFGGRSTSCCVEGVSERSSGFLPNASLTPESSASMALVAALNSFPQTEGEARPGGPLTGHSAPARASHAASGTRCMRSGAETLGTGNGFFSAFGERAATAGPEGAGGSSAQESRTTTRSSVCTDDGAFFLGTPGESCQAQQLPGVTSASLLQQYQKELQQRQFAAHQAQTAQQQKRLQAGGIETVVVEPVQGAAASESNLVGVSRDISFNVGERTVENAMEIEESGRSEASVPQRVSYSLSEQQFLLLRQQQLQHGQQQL

Cc1cccc(-c2[nH]c(C(C)(C)C)nc2-c2ccc3c(c2)OCO3)n1 [SB505124, 2-(5-benzo[1,3]dioxol-5-yl-2-tert-butyl-3H-imidazol-4-yl)-6-methylpyridine hydrochloride]
pIC50: 6.90
